Measured values: US20190350907A1, “METHODS AND PHARMACEUTICAL COMPOSITIONS FOR REDUCING CD95- MEDIATED CELL MOTILITY” (INSERM (INSTITUT NATIONAL DE LA SANTÉ ET DE LA RECHERCHE …, priority 2017, published 2019)

What was measured:
[1] = system: CD95-mediated Ca2+ signaling pathway in Th17 cells; experiment: CD95-mediated Ca2+ response in Th17 cells; assay type: cell-based, human; details: non-toxic concentrations (1 μM), 1 h pre-treatment, cl-CD95L 100 ng/mL, FuraPE3-AM
Protocol: A. Activated PBLs were loaded with FuraPE3-AM (1 μM) and pre-treated for 1 h with non-toxic concentrations of indicated compounds. T-cells were then stimulated with thapsigargin (1 μM; arrow). Ratio values (R) were normalized to pre-stimulated values (R0) to yield R/R0 values. Data represent means±the SD. B. Th17 cells were sorted from healthy donors and loaded with FuraPE3-AM (1 μM). Th17 cells were pre-treated for 1 h with non-toxic concentrations of ritonavir or diflunisal (1 μM). T-cells were then stimulated with cl-CD95L (100 ng/mL; arrow). Ratio values (R) were normalized to pre-stimulated values (R0) to yield R/R0 values. Data represent means±the SD.
Human PBLs were sorted using flow cytometry cell sorting to isolate Th17 (A) according to their phenotype (CD3+CD4+CXCR5−CCR6+CXCR3−CD45RA−) and Tfh (B) (CD4+CXCR5+ICOS+PD−1+CD45RA−). Cells were pre-incubated with Indicated drugs (1 μM) for 1 h and then stimulated with 100 ng/mL of s-CD95L. [Ca2+]CYT was assessed in Fluo2 LR-AM (3 μM)-loaded cells. Data represent means±the SD of 3 independent experiments.
Peripheral blood mononuclear cells (PBMC) were isolated from buffy-coat by density gradient using lymphocyte separation medium (Eurobio, Les Ulis, France). PBMCs were then subjected to selection using a cocktail of antibody-coated magnetic beads: CCR6^+ CXCR3^−CD4^+ cells (Th17 cells) were sorted with Human Th17 Enrichment kit (STEMCELL Technologies, Grenoble, France). Cell sorting efficiency was evaluated by FACS.
T-cells were loaded with Fura-PE3-AM (1 μM) at room temperature for 30 min in Hank's Balanced Salt Solution (HBSS). After washing, the cells were incubated for 15 min in the absence of Fura-PE3-AM to complete de-esterification of the dye. Cells were placed in a temperature controlled chamber (37° C.) of an inverted epifluorescence microscope (Olympus IX70) equipped with an x40 UApo/340-1.15 W water-immersion objective (Olympus), and fluorescence micrograph images were captured at 510 nm and 12-bit resolution by a fast-scan camera (CoolSNAP fx Monochrome, Photometrics). To minimize UV light exposure, a 4×4 binning function was used. Fura-PE3 was alternately excited at 340 and 380 nm, and the ratios of the resulting images (emission filter at 520 nm) were produced at constant intervals (10 seconds). The Fura-PE3 ratio (Fratio 340/380) images were analyzed offline with Universal Imaging software, including Metafluor and Metamorph. Fratio reflects the intracellular Ca^2+ concentration changes. Each experiment was repeated at least 3 times, and the average of more than 20 single-cell traces per experiment was analyzed.

Th17 cells = experiment: CD95-mediated migration / endothelial transmigration of Th17 cells (Boyden chamber); assay type: cell-based, human; details: non-toxic concentrations, 1 hour pre-incubation, Boyden chambers
Protocol: FIG. 3. Drugs inhibit CD95-mediated Ca′ response and cell migration. A. Activated PBLs were loaded with FuraPE3-AM (1 μM) and pre-treated for 1 h with non-toxic concentrations of indicated compounds. T-cells were then stimulated with cl-CD95L (100 ng/mL; arrow). Ratio values (R) were normalized to pre-stimulated values (R0) to yield R/R0 values. Data represent means±the SD. B. Left panel: using Boyden chamber assay, cell migration of parental H9 cells and their counterpart lacking CD95 (CD95-KO) was assessed. Right panel: activated PBLs were pre-incubated in the presence or absence of the indicated drugs for 1 hour using non-toxic concentration and the CD95-mediated cell migration was assessed by Boyden chambers. C. Th17 cells were sorted from blood of healthy donors (peripheral blood mononuclear cell). […] D. Th17 cells were pre-incubated in the presence or absence of the indicated drugs for 1 hour using non-toxic concentration and cell migration was assessed by Boyden chambers. […] To quantify invasion, cells were fixed with methanol and stained with Giemsa. […] For each experiment, invading cells were lysed and absorbance at 560 nm was measured. […] Cell sorting efficiency was evaluated by FACS. […] Transmigrated cells were counted in the lower reservoir by flow cytometry using a standard of 2.5×10^4 fluorescent beads (Flow-count, Beckman Coulter).

[2] = system: CD95-mediated Ca2+ signaling pathway in Tfh cells; experiment: CD95-mediated Ca2+ response in Tfh cells; assay type: cell-based, human; details: Example 2; signal described for Th17 and circulating Tfh cells
[3] = system: Tfh-dependent B cell activation; experiment: Tfh-dependent B-cell maturation co-culture (memory B cells with SEB-stimulated Tfh cells, s-CD95L); assay type: cell-based; details: preincubation of Tfh cells

SMILES | effect on CD95-mediated Ca2+ signaling in Th17 cells [1] | effect on endothelial transmigration in Th17 cells (Th17 cells) | effect on sCD95L-induced Ca2+ response [2] | effect on Tfh-dependent B cell activation [3]
O=C(O)c1cc(-c2ccc(F)cc2F)ccc1O [diflunisal, 5-(2,4-difluorophenyl)-2-hydroxybenzoic acid] | abrogated | abrogated |  | 
CC(C)c1nc(CN(C)C(=O)N[C@H](C(=O)N[C@@H](Cc2ccccc2)C[C@H](O)[C@H](Cc2ccccc2)NC(=O)OCc2cncs2)C(C)C)cs1 [ritonavir, 1,3-thiazol-5-ylmethyl N-[(2S,3S,5S)-3-hydroxy-5-[[(2S)-3-methyl-2-[[methyl-[(2-propan-2-yl-1,3-thiazol-4-yl)methyl]carbamoyl]amino]butanoyl]amino]-1,6-diphenylhexan-2-yl]carbamate] | abrogated | abrogated | abrogated | blocks
